Results published in PMC12376128, “In vitro and In Vivo Drug Metabolism Analysis of BPI-460372 - A Covalent TEAD1/3/4 Inhibitor” (Current Drug Metabolism, 2025).

Columns and labels:
monkey hepatocytes = test: Metabolism and metabolite formation in hepatocytes; type: in vitro ADME, cynomolgus monkey; settings: for UV (314 nm) Peak Areas Relative Abundance: cynomolgus monkey hepatocytes, 10 µM BPI-460372, 4 h incubation;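 on Area Ratio T4 h: peak area of analyte divided by internal standard peak area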
Excerpt: (§1) All the samples were duplicates.

dog hepatocytes = test: Metabolism and metabolite formation in hepatocytes; type: in vitro ADME, beagle dog; settings: for UV (314 nm) Peak Areas Relative Abundance: beagle dog hepatocytes, 10 µM BPI-460372, 4 h incubation;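 on Area Ratio T0 h: peak area of analyte divided by internal standard peak area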;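 on Area Ratio T4 h: peak area of analyte divided by internal standard peak area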
Excerpt: as §1

rat hepatocytes = test: Metabolism and metabolite formation in hepatocytes; type: in vitro ADME, SD rat; settings: for UV (314 nm) Peak Areas Relative Abundance: SD rat hepatocytes, 10 µM BPI-460372, 4 h incubation;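 on Area Ratio T0 h: peak area of analyte divided by internal standard peak area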
Excerpt: as §1

mouse hepatocytes = test: Metabolism and metabolite formation in hepatocytes; type: in vitro ADME, ICR mouse; settings: for UV (314 nm) Peak Areas Relative Abundance: ICR mouse hepatocytes, 10 µM BPI-460372, 4 h incubation;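 on Area Ratio T0 h: peak area of analyte divided by internal standard peak area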;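 on Area Ratio T4 h: peak area of analyte divided by internal standard peak area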
Excerpt: as §1

human hepatocytes = test: Metabolism and metabolite formation in hepatocytes; settings: human hepatocytes; for UV (314 nm) Peak Areas Relative Abundance: 10 µM BPI-460372, 4 h incubation
[1] = Metabolite identification in rat plasma, urine, feces and bile; type: in vivo, SD rats; settings: for Relative abundance of MS peak areas, Rat Bile 0-48 h / Relative abundance of MS peak areas, Rat Feces 0-48 h / Relative abundance of MS peak areas, Rat Urine 0-48 h: oral 6 mg/kg BPI-460372, average of male and female pooled samples
Experimental: The plasma samples were acquired from SD rats (n=6, 3 female and 3 male) and beagle dogs (n=6, 3 female and 3 male) after administration of 12 mg/kg and 8 mg/kg of BPI-460372, respectively. The rat urine, feces, and bile samples were acquired in SD rats after administration of 6 mg/kg of BPI-460372.
Equal volume from each rat was pooled together to get 1 male and 1 female 0-24 h plasma samples. An equal percentage by volume of individual urine sample (0-8, 8-24, and 24-48 h) from 3 female and 3 male rats was pooled by time interval across rats, respectively, resulting in two pooled urine samples (1 male and 1 female). An equal percentage by weight of individual feces samples (0-8, 8-24, and 24-48 h) was pooled by time interval across female and male rats, resulting in two pooled fecal samples. An equal percentage by volume of individual bile samples (0-4, 4-8, 8-24, and 24-48 h) was pooled by time interval across female and male rats, resulting in two pooled bile samples. […] Equal volumes from 3 female and 3 male rats were pooled together to get two 0-48 h plasma samples. For blank samples of plasma, urine, and bile, equal volume was pooled across subjects. For a blank sample of feces, equal weight was pooled across rats.
The pooled plasma, feces, and bile samples were extracted by adding 3-fold volume of acetonitrile, and the mixture was vortexed (1 min) and sonicated (1 min) before centrifugation (7220 g, 5 min). The pooled urine samples were centrifuged (7220 g, 5 min). Then the supernatant was transferred into a clean tube and evaporated to dryness under the nitrogen stream. The residues were redissolved with an appropriate volume of acetonitrile/water (20: 80, v: v). After centrifugation, the redissolved solution was transferred into an HPLC vial for UHPLC-Orbitrap-HRMS (15000 g, 10 min, 4°C).

[2] = test system: cysteine S-conjugate β-lyase; test: Effect of cysteine S-conjugate β-lyase inhibitor AOAA on the metabolism of BPI-460372 (rat urine); settings: for Area ratio in rat urine, mean (%CV): 20 mg/kg BPI-460372 + 100 mg/kg AOAA, once daily 21 days, urine 0-48 h on day 21; for Change of area ratio in rat urine on coadministration with AOAA: 20 mg/kg BPI-460372 with versus without 100 mg/kg AOAA
Experimental: To investigate the effect of cysteine S-conjugate β-lyase on the metabolism of BPI-460372, SD rats were treated with 20 mg/kg BPI-460372 alone (n=3, male) or 20 mg/kg BPI-460372 coadministration with 100 mg/kg cysteine S-conjugate β-lyase inhibitor AOAA (n=3, male), once daily for 21 consecutive days. On day 21, urine samples were collected at 0-8, 8-24 and 24-48 h. The same percentage of urine samples from each rat was taken at these three time intervals and mixed. The samples were analyzed by LC-MS/MS and then semi-quantified using the peak area ratio of analyte versus IS.

## CC(=O)N1CC(n2c(=O)n(-c3ccc(C(F)(F)F)cc3)c3nccnc32)C1 [M377]
Monkey hepatocytes
  UV (314 nm) Peak Areas Relative Abundance: 2.50%
Dog hepatocytes
  UV (314 nm) Peak Areas Relative Abundance: 2.44%
Rat hepatocytes
  UV (314 nm) Peak Areas Relative Abundance: 2.6%
Mouse hepatocytes
  UV (314 nm) Peak Areas Relative Abundance: 3.57%
Human hepatocytes
  UV (314 nm) Peak Areas Relative Abundance: 1.48%

## NC(CCC(=O)NC(CSCC(O)C(=O)N1CC(n2c(=O)n(-c3ccc(C(F)(F)F)cc3)c3nccnc32)C1)C(=O)NCC(=O)O)C(=O)O (stereo not drawn) [M712]
Monkey hepatocytes
  UV (314 nm) Peak Areas Relative Abundance: +
Dog hepatocytes
  UV (314 nm) Peak Areas Relative Abundance: +
Rat hepatocytes
  UV (314 nm) Peak Areas Relative Abundance: +
Mouse hepatocytes
  UV (314 nm) Peak Areas Relative Abundance: 1.43%
[1]
  Relative abundance of MS peak areas, Rat Bile 0-48 h: 0.10%
Human hepatocytes
  UV (314 nm) Peak Areas Relative Abundance: +

## O=C(O)[C@H]1O[C@@H](Oc2ccc3ccc(=O)oc3c2)[C@H](O)[C@@H](O)[C@@H]1O [7-EC-GluA, reference compound]
Monkey hepatocytes; monkey hepatocytes, 7-EC incubation, 0 h
  Area Ratio T0 h: 6.08E+02
Monkey hepatocytes; monkey hepatocytes, 7-EC incubation, 4 h
  Area Ratio T4 h: 1.55E+07
Dog hepatocytes; dog hepatocytes, 7-EC incubation, 0 h
  Area Ratio T0 h: 0.00E+00
Dog hepatocytes; dog hepatocytes, 7-EC incubation, 4 h
  Area Ratio T4 h: 1.27E+07
Rat hepatocytes; rat hepatocytes, 7-EC incubation, 0 h
  Area Ratio T0 h: 1.45E+02
Rat hepatocytes; rat hepatocytes, 7-EC incubation, 4 h
  Area Ratio T4 h: 8.08E+05
Mouse hepatocytes; mouse hepatocytes, 7-EC incubation, 0 h
  Area Ratio T0 h: 0.00E+00
Mouse hepatocytes; mouse hepatocytes, 7-EC incubation, 4 h
  Area Ratio T4 h: 7.44E+06
Human hepatocytes; 7-EC incubation, 0 h
  Area Ratio T0 h: 1.07E+03
Human hepatocytes; 7-EC incubation, 4 h
  Area Ratio T4 h: 3.85E+06

## CC(=O)NC(CSCC(F)C(=O)N1CC(n2c(=O)n(-c3ccc(C(F)(F)F)cc3)c3nccnc32)C1)C(=O)O (stereo not drawn) [M570]
Dog hepatocytes
  UV (314 nm) Peak Areas Relative Abundance: 2.44%
Rat hepatocytes
  UV (314 nm) Peak Areas Relative Abundance: 2.6%
Mouse hepatocytes
  UV (314 nm) Peak Areas Relative Abundance: 3.57%
[1]
  Relative abundance of MS peak areas, Rat Bile 0-48 h: 45.40%
  Relative abundance of MS peak areas, Rat Feces 0-48 h: 3.96%
  Relative abundance of MS peak areas, Rat Urine 0-48 h: 34.25%
[1]; oral 12 mg/kg BPI-460372, average of male and female pooled samples
  Relative abundance of MS peak areas, Rat Plasma 0-24 h: 0.12%
Human hepatocytes
  UV (314 nm) Peak Areas Relative Abundance: 1.48%
[2]
  Area ratio in rat urine, mean (%CV): 0.08 (40)
  Change of area ratio in rat urine on coadministration with AOAA: reduced

## CC(=O)NC(CSCC(O)C(=O)N1CC(n2c(=O)n(-c3ccc(C(F)(F)F)cc3)c3cncnc32)C1)C(=O)O (stereo not drawn) [M568]
[1]
  Relative abundance of MS peak areas, Rat Bile 0-48 h: 3.22%
  Relative abundance of MS peak areas, Rat Feces 0-48 h: 0.45%
  Relative abundance of MS peak areas, Rat Urine 0-48 h: 1.80%
[2]
  Area ratio in rat urine, mean (%CV): 0.06 (20)
  Change of area ratio in rat urine on coadministration with AOAA: reduced
